In US20120021967A1, “SYNTHETIC ANTIBODIES” (Arizona Board of Regents, A Body Corporate of the State Of …, priority 2008, published 2012):
Bridges are numbered along the chain shown (N, C = ends). Roman numbers before positions name the chains, in order. Where no end group is shown, it is not given here.

Columns and labels:
[1] = biological target: T1, transferrin (Homo sapiens, UniProt P02787); test: SPR of lysine-linked synbodies on immobilized transferrin, Kd from kinetics; assay type: binding; details: Kd determined from kinetics; read-out: Kd with respect to transferrin
Method: Transferrin 25 μg/ml in immobilization buffer selected for correct pH was then applied 302 at a flow rate of 5 to 10 μl/min for a contact time of about 5 to 10 minutes, allowing the amine functionality on the transferrin 308 to displace the activated NHS ester and bond to the surface via an amide bond. Finally, ethylene diamine (1-Methylene diamine-HCl at pH 8.5) was applied 304 at a flow rate of 5 to 10 μl/min for a contact time of about 6 to 7 minutes to deactivate any remaining reactive groups on the dextran chip surface. Flow rates and contact times are adjusted as necessary to provide the surface concentration of target desired for the intended application, and may vary by target. In general, for evaluating whether binding occurs, it is preferable to immobilize a relatively large quantity of target, and higher flow rates and/or longer contact times may be used. For determining kinetics, it is preferable to limit the amount of target immobilized so as to minimize rebinding and avidity effects, and lower flow rates and/or contact times may be used.
Candidate affinity elements for the transferrin synbody TRF19, TRF21, TRF23, TRF24, TRF25, and TRF26 were individually evaluated for solution phase KD with respect to transferrin by SPR analysis. […]

[2] = biological target: AKT1 (Homo sapiens, UniProt P31749); test: SPR of SYN23-26 binding to AKT1; details: read-out: estimated Kd with respect to AKT1
[3] = biological target: T1, transferrin; test: SPR of SYN23-26 binding to transferrin; details: read-out: estimated Kd with respect to transferrin
[4] = tested on: 8,000 human proteins (GST fusion); test: Invitrogen Protoarray Human Protein Microarray binding pattern (8,000 features); details: fluorescence intensity on human protein microarray
Method: Two biotinylated anti-TRF synbodies (SYN23-26 and SYN 21-22) were applied to a protein microarray having 8,000 features (Invitrogen Protoarray Human Protein Microarray v. 4.0 for immune response biomarker profiling), each feature comprising a distinct human protein (GST fusion) adsorbed to a nitrocellulose coated slide. Application of the synbodies to the microarray was performed in accordance with manufacturer instructions: (see ProtoArray Human Protein Microarray, Invitrogen, Catalog no. PAH052401, Version B, 15 Dec. 2006, 25-0970, Users Manual.) After blocking the array with 1% BSA/PBS/0.1% Tween for 1 hour at 4C with gentle shaking, 120 μl of probing buffer (1×PBS, 5 mM mgC12, 0.5 mM DTT, 0.05% Triton X-100, 5% glycerol, 1% BSA) with synbody was applied to the array. The prescribed cover slip was placed over the array and adjusted to remove air bubbles. The array was incubated in a 50 ml conical tube, printed side up, for 1.5 hours at 4C without shaking. The array was then removed from the conical tube inserted diagonally into the array chamber, kept on ice. 8 ml probing buffer was added to the chamber wall. The cover slip was removed and the array was incubated in probing buffer for 1 minute on ice. […] The array was dried in the dark for 60 minutes at room temperature, after which it was scanned using a fluorescent microarray scanner and data was taken and analyzed.

T1 sequence (P02787 20-698): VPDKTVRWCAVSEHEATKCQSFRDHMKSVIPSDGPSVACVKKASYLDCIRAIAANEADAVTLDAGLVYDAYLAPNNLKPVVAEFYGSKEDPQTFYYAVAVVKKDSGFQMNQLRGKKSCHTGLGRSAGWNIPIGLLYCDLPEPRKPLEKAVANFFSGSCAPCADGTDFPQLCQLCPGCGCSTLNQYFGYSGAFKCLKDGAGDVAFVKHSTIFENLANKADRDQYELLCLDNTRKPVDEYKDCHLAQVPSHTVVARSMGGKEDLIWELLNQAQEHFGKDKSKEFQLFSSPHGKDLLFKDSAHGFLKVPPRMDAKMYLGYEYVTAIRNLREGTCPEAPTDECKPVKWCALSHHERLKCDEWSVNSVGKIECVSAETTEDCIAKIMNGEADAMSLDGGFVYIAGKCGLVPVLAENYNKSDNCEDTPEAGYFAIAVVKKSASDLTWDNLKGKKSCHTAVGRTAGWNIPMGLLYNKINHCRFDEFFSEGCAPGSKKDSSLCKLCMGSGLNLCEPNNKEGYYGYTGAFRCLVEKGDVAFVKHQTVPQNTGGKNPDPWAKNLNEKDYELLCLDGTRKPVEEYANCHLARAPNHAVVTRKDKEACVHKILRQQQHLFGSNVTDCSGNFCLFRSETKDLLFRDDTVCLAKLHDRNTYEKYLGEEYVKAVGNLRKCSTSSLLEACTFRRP
AKT1, sequence (P31749 whole entry): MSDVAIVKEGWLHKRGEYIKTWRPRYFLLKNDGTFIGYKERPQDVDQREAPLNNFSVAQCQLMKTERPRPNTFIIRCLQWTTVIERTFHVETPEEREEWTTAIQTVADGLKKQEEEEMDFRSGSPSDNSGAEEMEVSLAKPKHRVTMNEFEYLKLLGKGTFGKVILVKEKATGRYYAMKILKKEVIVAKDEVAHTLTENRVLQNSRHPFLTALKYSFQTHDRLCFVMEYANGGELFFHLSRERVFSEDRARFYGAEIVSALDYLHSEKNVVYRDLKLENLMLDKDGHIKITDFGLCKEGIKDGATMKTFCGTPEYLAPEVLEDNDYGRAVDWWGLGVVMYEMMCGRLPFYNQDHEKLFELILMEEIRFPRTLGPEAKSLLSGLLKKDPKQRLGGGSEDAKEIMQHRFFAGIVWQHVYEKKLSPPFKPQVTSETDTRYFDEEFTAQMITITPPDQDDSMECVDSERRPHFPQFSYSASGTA

- Kd [1]: 150 ± 50 nM
- Kd [2]: ~1 nM
- Kd [3]: ~141 nM
- highest affinity target from a library of 8,000 [4]: PCCA
Substance: I: AHKVVPQRQIRHAYNRYGSGKC / II: FRGWAHIFFGPHVIYRGGSG (amide I:21-II:C) [SYN23-26]
